Test results reported in PMC12916490 (Molecular Psychiatry, 2025).
Like-named read-outs stand apart in the source and are kept apart here.

What was measured:
hTAAR1 = target: T1, hTAAR1 (Homo sapiens, UniProt Q96RJ0); assay: Functional activity at human TAAR1 (cAMP); format: cell-based; details: for Emax: mean (95% CI), β-phenylethylamine as maximal response, read-out: hTAAR1 Activation efficacy Emax
T1 construct: expressed in transfected cells
T1 sequence (Q96RJ0 1-339): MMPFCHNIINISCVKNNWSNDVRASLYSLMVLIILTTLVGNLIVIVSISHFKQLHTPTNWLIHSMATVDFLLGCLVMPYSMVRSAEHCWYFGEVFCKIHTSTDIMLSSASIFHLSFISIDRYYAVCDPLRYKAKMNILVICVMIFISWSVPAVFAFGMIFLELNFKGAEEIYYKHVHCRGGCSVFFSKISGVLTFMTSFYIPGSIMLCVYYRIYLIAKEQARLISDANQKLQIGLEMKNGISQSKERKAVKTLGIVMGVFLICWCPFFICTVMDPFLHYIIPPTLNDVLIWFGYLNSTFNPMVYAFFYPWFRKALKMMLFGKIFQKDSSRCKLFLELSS
Description: Activity at the human trace amine-associated receptor 1 (hTAAR1) was determined as previously described. More information can be found in the Supplementary information.
Then, the obtained RA values were used to calculate the bias factor (β) for each pathway combination. […]
pathway 1 over pathway 2. Brown-Forsythe and Welch ANOVA analyses were applied to estimate the statistical probability that β is different from zero.
3.3 Functional activity at the human TAAR1 […]
receptor 1 (hTAAR1) were generated by transfection with Lipofectamine 2000 (Invitrogen, Zug, Switzerland). The cells were harvested and pelleted by centrifugation at 900 rpm for 3 min at room temperature. The supernatant was then removed, and the cell pellet was resuspended in fresh culture medium. The cells were plated into 96 -well plates (100 μL, containing 80,000 cells per well) and incubated […]
The culture medium was removed, and the cells were washed once with 50 μL phosphate buffered saline without Ca2+ and Mg2+. Thereafter, 90 μL of Krebs -Ringer bicarbonate buffer (Sigma- […]
to 10 μM cAMP) was included on each plate. In addition, a reference plate containing RO5256390, β-phenylethylamine, and p-tyramine was included in each experiment. Test compound solution, β-phenylethylamine (as maximal response), or basal control were added at a volume of 30 μL, and the cells […]
Afterwards, the cells were lysed with 50 μL of detection mix solution […]
under heavy shaking. Fluorescence was then measured.
3.4 Plasma and brain tissue analysis
3.4.1 Analytical standards […]
to spike blank plasma or tissue homogenate at calibration standards of 1, 2.5, 5, 10, 25, 50, 100, 250, and […]
Extraction was performed by protein precipitation with 150 µL of acetonitrile added to 50 µL plasma in a 2-mL centrifuge tube. The samples were then vortexed for 10 s and shaken for 3 min at […]

C57BL/6 J mice [1] = assay: Head-twitch response (HTR) dose-response in mice, 30-min session; format: in vivo, mouse; details: for HTR (count/30 min): mean ± SEM; for ED50: Mus musculus, sc, 0.5 h, read-out: HTR in mice ED50 (95% CI), ascending phase of dose-response curve; for ED50 / HTR in mice Emax / HTR in mice Maximum rate: s.c., 30 min session
Description: (§1) Behavioral studies were conducted as previously described with minor modifications. Male C57BL/6 J mice (The Jackson Laboratory #000664, 24 mice/drug) were purchased at 8 weeks old, group housed for acclimation (3–5 per cage for 1–2 weeks) under a 12:12 light:dark cycle (07:00 local time = lights on), with ad libitum access to food and water at the NIDA IRP facilities in Baltimore, MD, USA. All experiments were approved by the NIDA IRP Animal Care and Use Committee. After acclimation to the vivarium facilities, each mouse was briefly anesthetized with isoflurane and a temperature transponder (14 × 2 mm, model IPTT-300, Bio Medic Data Systems, Inc., Seaford, DE, USA) was implanted subcutaneously (s.c.) on the back, posterior to the shoulder blades. After the implant, mice were single housed and allowed one week recovery prior to the start of experiments. […] Drugs were randomly assigned and administered s.c. as the weight of the form used at an injection volume of 0.01 mL/g body weight.
(§2) During experimental testing, mice were tested once every 1–2 weeks to avoid potential tolerance to behavioral effects of the test drugs and were tested 2–3 times in total per drug. Each test session began with a brief 5 min acclimation period to the testing arenas, followed by recording baseline body temperature using a handheld wand that was sensitive to the signals emitted from the s.c. transponder. After this, mice were injected s.c. with appropriate doses of test drug and returned to the chambers for a 30-min test session. During the dose-response sessions, locomotor activity was continuously recorded using open field chambers with photobeam arrays (Coulbourn Instruments, Holliston, MA, USA) that were modified with cylindrical inserts and custom floor panels that also allowed video recordings of each mouse to later quantify HTR activity (GoPro Hero 7 camera; 960p resolution at 120 frames per second). Videos for each mouse were analyzed post session using commercially available software used to quantify HTR as previously described.
(§3) Data analysis was performed with Prism software (version 10.1.2, GraphPad Software, Boston, MA, USA). The IC50 values from the radioligand binding assays were determined by nonlinear regression, using three independent concentration-response curves fitted to a one-site model. The Cheng-Prusoff equation was used to calculate Kᵢ values for the competing ligands. EC50 values were determined by applying nonlinear regression to concentration-response curves. Bias factors (β) were calculated based on the relative intrinsic activity approach. More detailed information can be found in the Supplementary information. Mean values for total number of HTR, change in body temperature from pre to post session (Δ°C), and total distance traveled (cm) for each drug dose were compared (p < 0.05) via Welch’s ANOVA with Dunnett’s T3 post test, comparing all doses to respective vehicle controls (0 mg/kg). Welch’s ANOVA with Dunnett’s T3 post test was also used to compare drug concentrations, but the data were compared to DOM in this case. Dose–response relationships for HTR and locomotor activities were plotted using bell-shaped curve fits, while temperature change data were plotted using four-parameter non-linear regression curve fits. The ascending phase of the HTR curve for each drug was used to determine ED50 potency values from four parameter non-linear regression fits. For combined DOM and DOAM administration, the plasma, brain tissue, and brain dialysate drug concentrations were compared using paired t-tests (p < 0.05). Ratios were compared using Holm-Sidak’s post hoc test following a repeated-measures one-way ANOVA (F (1.709, 6.835) = 70.80; p < 0.0001).
(§4) Locomotor activity and body temperature were also assessed to monitor other pharmacological effects of the drugs that may impact the HTR. […]

C57BL/6 J mice [2] = assay: Locomotor activity in mice (dose-response sessions); format: in vivo, mouse; details: 30-min session, mean ± SEM
Description: as §1, §2, §3, §4

h5-HT2A = h5-HT2A (Homo sapiens, UniProt P28223); assay: biochemical; format: binding; parameters: expressed in transfected cells; host or cells: HEK 293 cells (membrane preparation)
Sequence of h5-HT2A (P28223 whole entry, looked up): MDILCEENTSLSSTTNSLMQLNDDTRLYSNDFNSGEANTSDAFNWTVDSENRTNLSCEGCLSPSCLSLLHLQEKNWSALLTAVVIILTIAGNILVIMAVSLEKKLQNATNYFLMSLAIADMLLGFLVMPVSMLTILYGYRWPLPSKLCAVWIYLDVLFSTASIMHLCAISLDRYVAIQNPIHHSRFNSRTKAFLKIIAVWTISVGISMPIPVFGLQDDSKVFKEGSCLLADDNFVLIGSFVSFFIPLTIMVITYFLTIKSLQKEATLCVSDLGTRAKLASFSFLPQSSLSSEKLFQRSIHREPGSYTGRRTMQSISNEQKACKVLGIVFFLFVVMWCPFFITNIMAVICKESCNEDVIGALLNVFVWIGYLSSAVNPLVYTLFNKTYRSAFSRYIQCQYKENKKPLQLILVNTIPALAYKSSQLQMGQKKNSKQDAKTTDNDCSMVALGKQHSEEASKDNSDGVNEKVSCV

Structure (SMILES) | EC50 (hTAAR1) | Emax (hTAAR1) | HTR (count/30 min) (C57BL/6 J mice [1]; 0.03 mg/kg s.c.) | HTR (count/30 min) (C57BL/6 J mice [1]; 0.1 mg/kg s.c.) | HTR (count/30 min) (C57BL/6 J mice [1]; 0.3 mg/kg s.c.) | HTR (count/30 min) (C57BL/6 J mice [1]; 1 mg/kg s.c.) | HTR (count/30 min) (C57BL/6 J mice [1]; 3 mg/kg s.c.) | HTR (count/30 min) (C57BL/6 J mice [1]; 10 mg/kg s.c.) | HTR (count/30 min) (C57BL/6 J mice [1]; 30 mg/kg s.c.) | ED50 (C57BL/6 J mice [1]) | HTR in mice Emax (C57BL/6 J mice [1]) | HTR in mice Maximum rate (C57BL/6 J mice [1]) | Locomotor activity (distance traveled) (C57BL/6 J mice [2]; 0.03 mg/kg s.c.) | Locomotor activity (distance traveled) (C57BL/6 J mice [2]; 0.1 mg/kg s.c.) | Locomotor activity (distance traveled) (C57BL/6 J mice [2]; 0.3 mg/kg s.c.) | Locomotor activity (distance traveled) (C57BL/6 J mice [2]; 1 mg/kg s.c.) | Locomotor activity (distance traveled) (C57BL/6 J mice [2]; 3 mg/kg s.c.) | Locomotor activity (distance traveled) (C57BL/6 J mice [2]; 10 mg/kg s.c.) | Locomotor activity (distance traveled) (C57BL/6 J mice [2]; 30 mg/kg s.c.) | Ki (h5-HT2A) | also measured
CCCCCc1cc(OC)c(CC(C)N)cc1OC (stereo not drawn) [DOAM, 4-amyl-2,5-dimethoxyamphetamine] | 21.8 µM | 86% | 7.8 ± 1.6 count | 6.2 ± 1.6 count | 6.5 ± 1.2 count | 9.5 ± 1.2 count | 28.5 ± 2.6 count | 44.8 ± 3.6 count | 26.0 ± 3.7 count | 2.76 mg/kg | 45 total HTR count | 9 HTR count/5 min | 2,867 ± 167 cm | 2,677 ± 103 cm | 2,307 ± 244 cm | 2,421 ± 129 cm | 2,884 ± 249 cm | 3,433 ± 325 cm | 1,724 ± 138 cm | 0.0035 µM | Selectivity (binding ratios) 5-HT2A/5-HT1A (h5-HT2A; ratio of Ki values): 2407; Selectivity (binding ratios) 5-HT2A/5-HT2B (h5-HT2A; ratio of Ki values): 28; Selectivity (binding ratios) 5-HT2A/5-HT2C (h5-HT2A; ratio of Ki values): 21
CCCCc1cc(OC)c(CC(C)N)cc1OC (stereo not drawn) [DOBU, 4-butyl-2,5-dimethoxyamphetamine] | 10.4 µM | 98% | 6.0 ± 0.9 count | 9.0 ± 1.7 count | 12.7 ± 1.3 count | 40.2 ± 2.9 count | 78.7 ± 6.2 count | 69.3 ± 4.7 count | 17.5 ± 4.5 count | 1.29 mg/kg | 79 total HTR count | 16 HTR count/5 min | 2,386 ± 181 cm | 2,342 ± 184 cm | 2,535 ± 61 cm | 3,030 ± 217 cm | 3,348 ± 297 cm | 1,167 ± 195 cm | 793 ± 154 cm | 0.0054 µM | Selectivity (binding ratios) 5-HT2A/5-HT1A (h5-HT2A; ratio of Ki values): 2506; Selectivity (binding ratios) 5-HT2A/5-HT2B (h5-HT2A; ratio of Ki values): 30; Selectivity (binding ratios) 5-HT2A/5-HT2C (h5-HT2A; ratio of Ki values): 11
CCCc1cc(OC)c(CC(C)N)cc1OC.Cl (stereo not drawn) [DOPR, 4-propyl-2,5-dimethoxyamphetamine hydrochloride] | 10.1 µM | 95% | 9.7 ± 2.2 count | 22.7 ± 2.8 count | 53.6 ± 2.9 count | 98.2 ± 2.3 count | 58.0 ± 9.6 count | 21.2 ± 3.0 count |  | 0.42 mg/kg | 98 total HTR count | 20 HTR count/5 min | 2,493 ± 199 cm | 2,791 ± 131 cm | 3,680 ± 100 cm | 3,500 ± 278 cm | 1,648 ± 262 cm | 665 ± 82 cm |  | 0.011 µM | HTR (count/30 min) (C57BL/6 J mice [1]; 0.01 mg/kg s.c.): 6.2 ± 0.9 count; Locomotor activity (distance traveled) (C57BL/6 J mice [2]; 0.01 mg/kg s.c.): 2,728 ± 251 cm; Selectivity (binding ratios) 5-HT2A/5-HT1A (h5-HT2A): 359; Selectivity (binding ratios) 5-HT2A/5-HT2B (h5-HT2A): 11; Selectivity (binding ratios) 5-HT2A/5-HT2C (h5-HT2A): 4
